Literature values as cited in patent US20150342920A1, “DERMATOLOGICAL COMPOSITIONS COMPRISING AT LEAST ONE RETINOID COMPOUND, AN ANTI-IRRITANT COMPOUND AND BENZOYL PEROXIDE” (GALDERMA RESEARCH & DEVELOPMENT, priority 2007, published 2015).

O=C(OOC(=O)c1ccccc1)c1ccccc1 [benzoyl peroxide]
degradation of benzoyl peroxide in solution (in solution, ethanol, propylene glycol and mixtures of PEG 400 and water, depends on type and concentration of solvent): degrades more or less rapidly
degradation of benzoyl peroxide in suspension (in suspension (disperse form) in water and in propylene glycol, after 90 days of storage): not degraded
